Experimental data: patent US12258327B2, “5-membered heteroaryl-containing aminopyridine compounds as EGFR inhibitors” (YUHAN CORPORATION, priority 2021, dated 2025)
Like-named read-outs stand apart in the source and are kept apart here.

Experiments:
[1] = target: EGFR del19/C797S (Homo sapiens, UniProt P00533, C797S/DEL746-750); assay: Biochemical EGFR kinase assay (Lance Ultra TR-FRET), double mutant del19/C797S
Description: (§1) Biochemical EGFR kinase assays were conducted using Lance Ultra time-resolved fluorescence resonance energy transfer (TR-FRET) technology from Perkin-Elmer. Compounds of the invention were initially diluted to 20 mM in 100% DMSO for storage and made into kinase buffer solution to create a compound concentration ranging from 0.003 μM and 10 μM.
(§2) Each kinase reactions were incubated at room temperature for 1 hour and then stopped by the addition of 4 μL of stop solution (10 mM EDTA). The specific Europium-labeled-anti-phosphopeptide antibody (PerkinElmer, AD0069) diluted in LANCE detection buffer was then added to a final concentration of 2 nM. After 60 minutes incubation at room temperature the LANCE signal was measured on an EnVision Multilabel Reader (Perkin-Elmer). Excitation wavelength was set at 320 nm and emission monitored at 615 nm (donor) and 665 nm (acceptor). The IC50 values were determined using GraphPad prism software (GraphPad Software, Inc., San Diego, CA, USA).

[2] = target: EGFR L858R/C797S (Homo sapiens, UniProt P00533, C797S/L858R); assay: Biochemical EGFR kinase assay (Lance Ultra TR-FRET), double mutant L858R/C797S
Description: as §1, §2

[3] = target: EGFR del19/T790M/C797S (Homo sapiens, UniProt P00533, C797S/DEL746-750/T790M); assay: Biochemical EGFR kinase assay (Lance Ultra TR-FRET), triple mutant del19/T790M/C797S
Description: as §1, §2

[4] = target: EGFR L858R/T790M/C797S (Homo sapiens, UniProt P00533, C797S/L858R/T790M); assay: Biochemical EGFR kinase assay (Lance Ultra TR-FRET), triple mutant L858R/T790M/C797S
Description: as §1, §2

[5] = target: EGFR wildtype (WT) (Homo sapiens, UniProt P00533); assay: Biochemical EGFR kinase assay (Lance Ultra TR-FRET), wildtype
Description: as §1, §2

[6] = Km ATP, read-out: IC50 del19/C797S (nM) Km ATP
[7] = Km ATP, read-out: IC50 L858R/C797S (nM) Km ATP
[8] = Km ATP, read-out: IC50 del19/T790M/C797S (nM) Km ATP
[9] = Km ATP, read-out: IC50 L858R/T790M/C797S (nM) Km ATP
[10] = Km ATP, read-out: IC50 WT (nM) Km ATP
[11] = IC50 del19/C797S (nM) 100 μM ATP, 100 μM ATP
[12] = IC50 L858R/C797S (nM) 100 μM ATP, 100 μM ATP
[13] = IC50 del19/T790M/C797S (nM) 100 μM ATP, 100 μM ATP
[14] = IC50 L858R/T790M/C797S (nM) 100 μM ATP, 100 μM ATP
[15] = IC50 WT (nM) 100 μM ATP, 100 μM ATP

EGFR wildtype (WT), sequence (P00533 25-1210): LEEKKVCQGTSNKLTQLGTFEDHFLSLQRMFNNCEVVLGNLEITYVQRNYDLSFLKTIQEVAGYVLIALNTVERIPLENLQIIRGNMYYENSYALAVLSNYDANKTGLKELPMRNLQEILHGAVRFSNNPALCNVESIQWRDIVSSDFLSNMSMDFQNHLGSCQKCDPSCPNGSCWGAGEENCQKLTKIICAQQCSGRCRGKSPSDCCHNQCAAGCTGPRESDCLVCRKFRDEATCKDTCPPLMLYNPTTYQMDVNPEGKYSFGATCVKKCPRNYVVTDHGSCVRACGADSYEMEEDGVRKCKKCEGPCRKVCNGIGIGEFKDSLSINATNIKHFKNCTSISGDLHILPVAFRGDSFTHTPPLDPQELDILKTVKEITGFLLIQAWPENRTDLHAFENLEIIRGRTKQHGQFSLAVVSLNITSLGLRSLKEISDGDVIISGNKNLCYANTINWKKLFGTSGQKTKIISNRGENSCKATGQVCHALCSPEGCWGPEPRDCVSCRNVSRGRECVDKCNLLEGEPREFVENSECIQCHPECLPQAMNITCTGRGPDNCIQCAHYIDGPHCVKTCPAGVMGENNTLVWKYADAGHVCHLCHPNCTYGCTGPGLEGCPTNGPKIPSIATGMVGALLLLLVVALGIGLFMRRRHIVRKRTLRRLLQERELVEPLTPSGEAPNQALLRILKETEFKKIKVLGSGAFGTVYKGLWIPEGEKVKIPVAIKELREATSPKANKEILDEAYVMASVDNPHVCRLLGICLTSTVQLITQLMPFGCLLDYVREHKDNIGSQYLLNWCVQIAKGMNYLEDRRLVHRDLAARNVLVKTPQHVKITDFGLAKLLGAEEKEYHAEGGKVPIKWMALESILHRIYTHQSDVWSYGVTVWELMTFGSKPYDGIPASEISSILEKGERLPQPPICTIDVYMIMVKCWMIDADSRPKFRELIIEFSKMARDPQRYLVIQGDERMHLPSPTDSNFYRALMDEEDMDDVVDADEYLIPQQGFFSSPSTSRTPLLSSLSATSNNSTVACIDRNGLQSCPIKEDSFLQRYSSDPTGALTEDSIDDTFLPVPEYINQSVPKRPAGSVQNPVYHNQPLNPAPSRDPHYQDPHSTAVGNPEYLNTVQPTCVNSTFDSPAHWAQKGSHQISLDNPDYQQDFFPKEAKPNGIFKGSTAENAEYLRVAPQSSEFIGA
EGFR L858R/T790M/C797S, sequence (P00533 25-1210 T790M/C797S/L858R): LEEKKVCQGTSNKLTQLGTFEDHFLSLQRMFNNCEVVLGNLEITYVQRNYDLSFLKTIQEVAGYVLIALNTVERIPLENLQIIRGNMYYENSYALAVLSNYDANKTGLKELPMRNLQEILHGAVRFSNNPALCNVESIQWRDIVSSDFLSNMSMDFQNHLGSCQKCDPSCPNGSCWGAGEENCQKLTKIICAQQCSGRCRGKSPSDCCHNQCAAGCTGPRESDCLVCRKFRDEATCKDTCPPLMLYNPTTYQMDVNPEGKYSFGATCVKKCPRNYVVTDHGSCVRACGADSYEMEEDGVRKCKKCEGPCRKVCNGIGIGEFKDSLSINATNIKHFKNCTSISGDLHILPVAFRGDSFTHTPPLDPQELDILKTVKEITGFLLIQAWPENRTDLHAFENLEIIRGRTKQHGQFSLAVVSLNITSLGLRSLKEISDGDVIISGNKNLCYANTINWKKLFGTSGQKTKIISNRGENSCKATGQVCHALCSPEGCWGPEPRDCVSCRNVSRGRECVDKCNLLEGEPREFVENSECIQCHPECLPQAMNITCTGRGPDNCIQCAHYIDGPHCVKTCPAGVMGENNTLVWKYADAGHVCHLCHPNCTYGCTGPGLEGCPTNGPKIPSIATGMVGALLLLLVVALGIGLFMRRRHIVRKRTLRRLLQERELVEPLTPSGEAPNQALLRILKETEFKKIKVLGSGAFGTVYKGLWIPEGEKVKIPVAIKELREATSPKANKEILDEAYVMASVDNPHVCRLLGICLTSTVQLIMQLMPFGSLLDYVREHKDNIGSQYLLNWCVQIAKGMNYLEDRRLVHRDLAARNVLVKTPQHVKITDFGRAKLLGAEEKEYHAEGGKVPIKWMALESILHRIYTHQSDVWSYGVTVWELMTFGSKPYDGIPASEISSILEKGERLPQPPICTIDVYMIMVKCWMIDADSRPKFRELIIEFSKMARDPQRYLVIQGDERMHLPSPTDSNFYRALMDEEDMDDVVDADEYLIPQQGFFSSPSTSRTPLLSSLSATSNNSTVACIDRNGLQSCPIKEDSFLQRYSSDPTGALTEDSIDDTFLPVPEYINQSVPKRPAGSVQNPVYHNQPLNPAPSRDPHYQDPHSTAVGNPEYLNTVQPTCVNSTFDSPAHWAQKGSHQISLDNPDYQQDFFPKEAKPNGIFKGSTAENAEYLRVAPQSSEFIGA
EGFR L858R/C797S, sequence (P00533 25-1210 C797S/L858R): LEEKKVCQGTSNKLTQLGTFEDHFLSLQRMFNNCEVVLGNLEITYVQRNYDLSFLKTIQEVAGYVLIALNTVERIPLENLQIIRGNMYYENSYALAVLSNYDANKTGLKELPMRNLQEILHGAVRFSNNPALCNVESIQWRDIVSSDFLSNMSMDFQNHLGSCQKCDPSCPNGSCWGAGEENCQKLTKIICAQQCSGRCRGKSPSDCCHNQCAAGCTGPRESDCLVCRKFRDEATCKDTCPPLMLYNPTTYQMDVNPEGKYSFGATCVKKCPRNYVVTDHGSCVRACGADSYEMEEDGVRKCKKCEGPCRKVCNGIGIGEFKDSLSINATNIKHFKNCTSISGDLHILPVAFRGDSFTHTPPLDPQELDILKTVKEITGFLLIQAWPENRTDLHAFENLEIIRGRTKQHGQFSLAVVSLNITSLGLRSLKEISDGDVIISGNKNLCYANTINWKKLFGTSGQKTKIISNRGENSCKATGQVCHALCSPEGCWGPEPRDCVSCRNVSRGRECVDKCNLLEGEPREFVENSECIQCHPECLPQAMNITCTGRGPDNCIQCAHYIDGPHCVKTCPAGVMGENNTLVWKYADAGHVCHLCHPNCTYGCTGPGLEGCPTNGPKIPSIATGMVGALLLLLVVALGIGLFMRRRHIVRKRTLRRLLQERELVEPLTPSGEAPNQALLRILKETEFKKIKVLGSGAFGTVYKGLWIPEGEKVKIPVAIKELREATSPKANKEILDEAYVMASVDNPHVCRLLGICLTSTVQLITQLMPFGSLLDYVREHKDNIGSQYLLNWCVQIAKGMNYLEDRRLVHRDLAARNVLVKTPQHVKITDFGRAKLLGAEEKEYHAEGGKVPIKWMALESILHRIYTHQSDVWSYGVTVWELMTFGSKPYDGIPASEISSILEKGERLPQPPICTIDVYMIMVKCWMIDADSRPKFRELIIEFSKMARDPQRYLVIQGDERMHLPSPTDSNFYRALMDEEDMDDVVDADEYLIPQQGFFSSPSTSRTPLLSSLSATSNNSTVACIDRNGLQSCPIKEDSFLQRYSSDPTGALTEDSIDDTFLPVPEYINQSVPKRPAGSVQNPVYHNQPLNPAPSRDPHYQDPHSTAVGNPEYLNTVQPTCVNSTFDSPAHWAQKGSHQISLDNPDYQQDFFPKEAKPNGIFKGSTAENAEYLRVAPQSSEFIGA
EGFR del19/T790M/C797S, sequence (P00533 with tags, fused parts or gaps DEL746-750/T790M/C797S): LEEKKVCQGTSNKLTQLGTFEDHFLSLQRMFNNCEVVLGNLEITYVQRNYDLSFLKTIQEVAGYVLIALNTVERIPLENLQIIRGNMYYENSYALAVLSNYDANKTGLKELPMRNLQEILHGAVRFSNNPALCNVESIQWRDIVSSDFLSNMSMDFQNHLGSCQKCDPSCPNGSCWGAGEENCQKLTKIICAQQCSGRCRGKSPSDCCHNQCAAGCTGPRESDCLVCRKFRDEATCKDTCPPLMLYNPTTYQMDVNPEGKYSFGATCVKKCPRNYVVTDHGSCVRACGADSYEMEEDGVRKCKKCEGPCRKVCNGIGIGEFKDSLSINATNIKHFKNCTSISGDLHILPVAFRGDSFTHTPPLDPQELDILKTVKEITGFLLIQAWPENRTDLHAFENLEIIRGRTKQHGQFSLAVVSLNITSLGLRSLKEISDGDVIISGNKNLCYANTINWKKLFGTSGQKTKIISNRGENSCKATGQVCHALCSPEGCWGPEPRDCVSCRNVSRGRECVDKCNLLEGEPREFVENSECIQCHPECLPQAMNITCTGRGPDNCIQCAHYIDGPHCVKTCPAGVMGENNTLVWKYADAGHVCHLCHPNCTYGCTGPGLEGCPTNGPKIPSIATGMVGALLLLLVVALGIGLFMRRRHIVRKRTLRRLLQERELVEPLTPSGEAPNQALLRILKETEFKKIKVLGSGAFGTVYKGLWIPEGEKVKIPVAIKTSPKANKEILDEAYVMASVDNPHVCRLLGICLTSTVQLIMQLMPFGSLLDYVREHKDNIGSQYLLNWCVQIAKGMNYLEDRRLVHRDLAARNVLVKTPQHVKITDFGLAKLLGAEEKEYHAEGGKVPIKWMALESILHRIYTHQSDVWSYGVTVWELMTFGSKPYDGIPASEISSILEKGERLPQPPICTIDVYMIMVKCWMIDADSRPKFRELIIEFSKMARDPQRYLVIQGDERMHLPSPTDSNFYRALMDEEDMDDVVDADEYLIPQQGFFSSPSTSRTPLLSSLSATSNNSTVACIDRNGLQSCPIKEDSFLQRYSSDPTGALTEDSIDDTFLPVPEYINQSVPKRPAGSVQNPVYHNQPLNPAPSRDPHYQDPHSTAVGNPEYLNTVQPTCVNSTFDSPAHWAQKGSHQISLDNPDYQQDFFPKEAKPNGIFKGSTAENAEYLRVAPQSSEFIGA

SMILES | IC50 [1, 6] [nM] | IC50 [2, 7] [nM] | IC50 [3, 8] [nM] | IC50 [4, 9] [nM] | IC50 [5, 10] [nM] | IC50 [1, 11] [nM] | IC50 [2, 12] [nM] | IC50 [3, 13] [nM] | IC50 [4, 14] [nM] | IC50 [5, 15] [nM] | IC50 ([1]; IC50 del19/C797S, 100 μM ATP) [nM] | IC50 ([2]; IC50 L858R/C797S, 100 μM ATP) [nM] | IC50 ([3]; IC50 del19/T790M/C797S, 100 μM ATP) [nM] | IC50 ([4]; IC50 L858R/T790M/C797S, 100 μM ATP) [nM] | IC50 ([5]; IC50 WT, 100 μM ATP) [nM]
CN(C)C[C@H]1C[C@H](CNc2cc(Nc3ccnc(-c4cnn(S(=O)(=O)C5CC5)c4)n3)ncc2-c2ccn(C)n2)C1 [Example 239, N^2-(2-(1-(Cyclopropylsulfonyl)-1H-pyrazol-4-yl)pyrimidin-4-yl)-N^4-(((1r,3r)-3-((dimethylamino)methyl)cyclobutyl)methyl)-5-(1-methyl-1H-pyrazol-3-yl)pyridine-2,4-diamine] | 4.6 | 3.6 | 0.3 | 0.1 | 10.1 |  |  |  |  |  |  |  |  |  | 
CN(C)CC1(C)CCC(Nc2cc(Nc3ccnc(-c4cnn(S(=O)(=O)C5CC5)c4)n3)ncc2-c2ccn(CC(F)(F)F)n2)CC1 (stereo not shown) [Example 267, N^2-(2-(1-(Cyclopropylsulfonyl)-1H-pyrazol-4-yl)pyrimidin-4-yl)-N^4-(4-((dimethylamino)methyl)-4-methylcyclohexyl)-5-(1-(2,2,2-trifluoroethyl)-1H-pyrazol-3-yl)pyridine-2,4-diamine] | 6.7 | 25.4 | 0.2 | 0.5 | 28.7 | 8.8 | 576 | 0.1 | 0.1 | 8270 |  |  |  |  | 
C[C@]1(O)CC[C@@H](Nc2cc(Nc3ccnc(-c4cnn(S(=O)(=O)C5CC5)c4)c3)ncc2-c2ccn(C(F)F)n2)CC1 [Example 354, (1s,4s)-4-((2-((2-(1-(Cyclopropylsulfonyl)-1H-pyrazol-4-yl)pyridin-4-yl)amino)-5-(1-(difluoromethyl)-1H-pyrazol-3-yl)pyridin-4-yl)amino)-1-methylcyclohexan-1-ol] |  |  |  |  |  |  |  |  |  |  | 135 | 2540 | 2 | 13.1 | > 10000
Cc1nn(S(=O)(=O)N(C)C)cc1-c1nccc(Nc2cc(N[C@H]3CC[C@@](C)(O)CC3)c(-c3ccn(C(F)F)n3)cn2)n1 [Example 315, 4-(4-((5-(1-(Difluoromethyl)-1H-pyrazol-3-yl)-4-(((1s,4s)-4-hydroxy-4-methylcyclohexyl)amino)pyridin-2-yl)amino)pyrimidin-2-yl)-N,N,3-trimethyl-1H-pyrazole-1-sulfonamide] | 6.3 | 5.4 | 0.6 | 0.5 | 14.2 | 11 | 37.4 | 1.9 | 1.1 | > 10000 |  |  |  |  | 
CS(=O)(=O)N1CCC(c2nccc(Nc3cc(N[C@H]4CC[C@@](C)(O)CC4)c(-c4ccn(C(F)F)n4)cn3)n2)CC1 [Example 158, (1s,4s)-4-((5-(1-(Difluoromethyl)-1H-pyrazol-3-yl)-2-((2-(1-(methylsulfonyl)piperidin-4-yl)pyrimidin-4-yl)amino)pyridin-4-yl)amino)-1-methylcyclohexan-1-ol] | 6330 | 450 | 110 | 9.4 | 635 |  |  |  |  |  |  |  |  |  | 
O=S(=O)(C1CC1)n1cc(-c2nccc(Nc3cc(N[C@H]4CCCNCC4)c(-c4ccn(C(F)F)n4)cn3)n2)cn1 [Example 17, (S)-N^4-(Azepan-4-yl)-N^2-(2-(1-(cyclopropylsulfonyl)-1H-pyrazol-4-yl)pyrimidin-4-yl)-5-(1-(difluoromethyl)-1H-pyrazol-3-yl)pyridine-2,4-diamine] |  |  |  |  |  | 19.1 | 691 | 1 | 2.6 | > 10000 |  |  |  |  | 
Cn1nc(-c2cnc(Nc3ccnc(-c4cnn(S(=O)(=O)C5CC5)c4)n3)cc2N[C@H]2CC[C@@H](CO)CC2)cc1C(F)(F)F [Example 253, ((1s,4s)-4-((2-((2-(1-(Cyclopropylsulfonyl)-1H-pyrazol-4-yl)pyrimidin-4-yl)amino)-5-(1-methyl-5-(trifluoromethyl)-1H-pyrazol-3-yl)pyridin-4-yl)amino)cyclohexyl)methanol] | 2.3 | 7 |  | 0.9 | 3.4 | 3.2 | 10.6 | 1.1 | 2.1 | 618 |  |  |  |  | 

More lines, in order of falling IC50 [1, 6], values ahead:

IC50 [1, 6] [nM] | IC50 [2, 7] [nM] | IC50 [3, 8] [nM] | IC50 [4, 9] [nM] | IC50 [5, 10] [nM] | IC50 [1, 11] [nM] | IC50 [2, 12] [nM] | IC50 [3, 13] [nM] | IC50 [4, 14] [nM] | IC50 [5, 15] [nM] | IC50 ([1]; IC50 del19/C797S, 100 μM ATP) [nM] | IC50 ([2]; IC50 L858R/C797S, 100 μM ATP) [nM] | IC50 ([3]; IC50 del19/T790M/C797S, 100 μM ATP) [nM] | IC50 ([4]; IC50 L858R/T790M/C797S, 100 μM ATP) [nM] | IC50 ([5]; IC50 WT, 100 μM ATP) [nM] | SMILES
2.2 | 0.2 | 0.6 | 0.3 | 1.7 |  |  |  |  |  |  |  |  |  |  | COCn1ccc(-c2cnc(Nc3ccnc(-c4cnn(S(=O)(=O)C5CC5)c4)n3)cc2NC(C)C)n1 [Example 303, N^2-(2-(1-(Cyclopropylsulfonyl)-1H-pyrazol-4-yl)pyrimidin-4-yl)-N^4-isopropyl-5-(1-(methoxymethyl)-1H-pyrazol-3-yl)pyridine-2,4-diamine]
2 | 1 | 1 | 0.5 | 8.3 |  |  |  |  |  |  |  |  |  |  | Cn1nc(-c2cnc(Nc3ccnc(-c4cnn(S(=O)(=O)C5CC5)c4)n3)cc2NN2CCC(O)CC2)cc1C(F)(F)F [Example 160, 1-((2-((2-(1-(Cyclopropylsulfonyl)-1H-pyrazol-4-yl)pyrimidin-4-yl)amino)-5-(1-methyl-5-(trifluoromethyl)-1H-pyrazol-3-yl)pyridin-4-yl)amino)piperidin-4-ol]
1.9 | 2 | 0.4 | 0.2 | 19.4 | 4.2 | 53.3 | 0.9 | 1.6 | > 10000 |  |  |  |  |  | O=S(=O)(C1CC1)n1cc(-c2nccc(Nc3cc(NC[C@H]4C[C@H](O)C4)c(-c4ccn(C(F)F)n4)cn3)n2)cn1 [Example 34, (1r,3r)-3-(((2-((2-(1-(Cyclopropylsulfonyl)-1H-pyrazol-4-yl)pyrimidin-4-yl)amino)-5-(1-(difluoromethyl)-1H-pyrazol-3-yl)pyridin-4-yl)amino)methyl)cyclobutan-1-ol]
1.7 | 2.8 | 0.4 | 0.2 | 6.5 |  |  |  |  |  |  |  |  |  |  | O=S(=O)(C1CC1)n1cc(-c2ncc(F)c(Nc3cc(N[C@H]4CC[C@@H](CN5CCC5)CC4)c(-c4ccn(C(F)F)n4)cn3)n2)cn1 [Example 327, N^4-((1s,4s)-4-(Azetidin-1-ylmethyl)cyclohexyl)-N^2-(2-(1-(cyclopropylsulfonyl)-1H-pyrazol-4-yl)-5-fluoropyrimidin-4-yl)-5-(1-(difluoromethyl)-1H-pyrazol-3-yl)pyridine-2,4-diamine]
0.9 | 1.9 | 0.4 | 0.2 | 5.8 | 0.9 | 6.1 | 0.4 | 0.5 | 9600 |  |  |  |  |  | Cn1ccc(-c2cnc(Nc3ccnc(-c4cnn(S(=O)(=O)C5CC5)c4)n3)cc2NC[C@H]2CC[C@](C)(O)CC2)n1 [Example 48, (1r,4r)-4-(((2-((2-(1-(Cyclopropylsulfonyl)-1H-pyrazol-4-yl)pyrimidin-4-yl)amino)-5-(1-methyl-1H-pyrazol-3-yl)pyridin-4-yl)amino)methyl)-1-methylcyclohexan-1-ol]
0.9 | 2.8 | 1.8 | 0.6 | 2.9 | 1.1 | 40.4 | 2.8 | 2.3 | 806 |  |  |  |  |  | Cc1cc(-c2cnc(Nc3ccnc(-c4cnn(S(=O)(=O)C5CC5)c4)n3)cc2N[C@H]2CC[C@@H](C(C)(C)O)CC2)nn1C [Example 281, 2-((1s,4s)-4-((2-((2-(1-(Cyclopropylsulfonyl)-1H-pyrazol-4-yl)pyrimidin-4-yl)amino)-5-(1,5-dimethyl-1H-pyrazol-3-yl)pyridin-4-yl)amino)cyclohexyl)propan-2-ol]
